In one test the target is LYR3 (Medicago truncatula, UniProt G7KAT5). Briefly: Saturation and competitive binding on LYR3-YFP expressed in N. benthamiana leaf membrane fractions. Particulars: for Ki: LYR3-YFP in N. benthamiana leaf membranes, competition with 0.9 nM LCO-IV(35S, C16:2Δ2,9), read-out: Affinity (nM) for LYR3 (Ki); for affinity / competition for binding to LYR3 (in words): competition with radioactive LCO. From the text:
Genes LYR3, LYK9 and LYR6 were inserted into a binary vector, fused in C-terminal with a fluorescent protein (Yellow Fluorescent Protein: YFP) and introduced into Nicotiana benthamiana leaves using agroinfiltration by Agrobacterium tumefaciens. Meanwhile, NFP and LYK3 genes which encode putative receptors […] Nod factors were inserted into the same vectors and expressed in the same conditions.
3 days after agro-infiltration, leaves of N. benthamiana expressing the different constructs were harvested and ground in liquid nitrogen. Membrane fractions were prepared from the ground material, using the same protocol as that described above for the preparation of microsomal fractions, except that 0.6% (w/v) of polyvinyl-polypyrrolidone were added to extraction buffer. After centrifugation at 3000×g, the supernatant was collected and centrifuged at 45000×g. The resulting (membrane fraction) pellet was resuspended in binding buffer, and stored at −80° C. in the presence of 10% or 50% glycerol, until use.
Membrane proteins were separated by 10% polyacrylamide gel electrophoresis in SDS, and transferred onto nitrocellulose membrane, and detection of recombinant proteins made using anti-GFP antibody. Meanwhile, the properties of specific binding to LCOs were assessed by equilibrium binding, as described in Example 1, using 0.8 to 2.4 nM of LCO-IV (^35S, C16:2Δ2, 9) +/−2 μM of unlabeled LCO-IV (S, C16: 2Δ2, 9), and 25 micrograms to 80 micrograms of membrane protein, depending of the expression level of the protein labeled with YFP.
To further characterize the binding properties of the protein LYR3, saturation binding experiments using LCO-IV (^35S, C16:2Δ2, 9) and competitive binding experiments in the presence of different COs or LCOs were performed.

The target of the next test is PsLYR3 (Lathyrus oleraceus, UniProt A0A9D5BD18). Kind of test: Equilibrium, saturation and competitive binding on MtLYR3 ortholog expressed in N. benthamiana leaves. Also noted: species or system Pisum sativum. The following applies: PsLYR3; for Ki: read-out: Affinity (Ki). From the text: (§1) In legumes, MtLYR3 orthologs have been identified in P. sativum, P. vulgaris and L. japonicus. In G. max orthologs exist in duplicate due to a duplication of the genome. The corresponding genes have been cloned and sequenced. A few differences in sequence compared with sequences in the databases were found which could be explained by the use of different varieties of plants or by sequencing errors in databases. The cloned genes were introduced into binary vectors, in C-terminal fusion with the fluorescent protein YFP, and introduced into Nicotiana benthamiana leaves using agroinfiltration by Agrobacterium tumefaciens, as described above in Example 3. The membrane fractions were isolated, their protein content was analyzed by electrophoresis under denaturing conditions, followed by immunodetection using anti-GFP antibody as described in Example 3, and their ability to interact with LCOs was determined by equilibrium binding, as described in Example 1, in the presence of 1 nM LCO-IV (S^35, C16:2Δ2, 9). The value of specific binding is determined by the value of difference between the total binding and the nonspecific binding obtained for incubation in the presence of an excess (2 μM) of unlabeled ligand. For comparison, the ability to interact of LjNFR5 and LjNFR1 receptors, identified in L. japonicus to play a role in nodulation by a genetic approach (MADSEN et al, Nature, 425, 637-40, 2003. RADUTOIU et al., Nature, 425, 585-92, 2003a) and respective orthologs of LYK3 and NFP in M. truncatula was determined under the same conditions.
(§2) To further characterize the binding properties of MtLYR3 orthologs to LCOs, saturation and competitive binding experiments in the presence of different COs or LCOs were performed.

The target of the next test is LjLYS12 (Lotus japonicus, UniProt D3KTZ9). The test is described as above. The following applies: LjLYS12; for Ki: read-out: Affinity (Ki).
From the text: as §1, §2

The target in a further test is GmLYR3-11 (Glycine max, UniProt I1LHL9). Described as above. Particulars: GmLYR3-11; for Ki: read-out: Affinity (Ki).
From the text: as §1, §2

In a further test the target is GmLYR3-1 (Glycine max, UniProt A5YJW2). The description is as above. The following applies: GmLYR3-1; for Ki: read-out: Affinity (Ki).
From the text: as §1, §2

In a further test the target is PvLYR3 (Phaseolus vulgaris, UniProt V7CFC1). Described as above. Particulars: PvLYR3; for Ki: read-out: Affinity (Ki).
From the text: as §1, §2

For test [1], the system named is 100 kDa polypeptide (MtNFBS2). Briefly: Photolabeling of the 100 kDa polypeptide in membrane fractions, with excess competitors. The test is classed as binding, Medicago truncatula. Particulars: 2 μM competitor, 5 nM azido ligand, dmi3 membrane fraction. From the text:
To assess the molecular mass of the affine protein of Nod factors responsible for binding properties of MtNFBS2, a photolabeling with Nod factors analogs containing a photoactivatable group, which after irradiation in a given wavelength reactive species which can form a covalent bond with the surrounding molecules, has been taken. […] homologues of these molecules have been synthesized and labeled with ^35S to enable detection of the stable complex ligand/binding protein.
For photolabeling, 5 nM of radioactive and photoactivatable ligand, alone or in the presence of an excess (2 μM) different competitors were incubated in binding buffer, in the same conditions as described in Example 1 above for the binding experiments at equilibrium, with 300 micrograms of membrane protein fraction obtained from cultured cells of wild-type Medicago truncatula (A 17), or the dmi3 mutant of Medicago truncatula. After 1 hour of incubation, the samples were irradiated for 5 min at 254 nm or 10 min at 365 nm with a fluorescent tube at a distance of 4 cm. The free ligand was removed by centrifugation, and the membrane pellet was washed two times in binding buffer.
The membrane pellet proteins were separated by polyacrylamide gel electrophoresis in 10% SDS, and transferred onto nitrocellulose membrane, and detection was carried out by autoradiography.

Consider 13 compounds from patent US20150232876A1, “Use of a Receptor Kinase Having LysM Motifs in Order to Improve the Response of Plants to Lipochitooligosaccharides” (INSTITUT NATIONAL DE LA RECHERCHE AGRONOMIQUE, priority 2012, published 2015).

Chain of PvLYR3 (V7CFC1 entry or part of it): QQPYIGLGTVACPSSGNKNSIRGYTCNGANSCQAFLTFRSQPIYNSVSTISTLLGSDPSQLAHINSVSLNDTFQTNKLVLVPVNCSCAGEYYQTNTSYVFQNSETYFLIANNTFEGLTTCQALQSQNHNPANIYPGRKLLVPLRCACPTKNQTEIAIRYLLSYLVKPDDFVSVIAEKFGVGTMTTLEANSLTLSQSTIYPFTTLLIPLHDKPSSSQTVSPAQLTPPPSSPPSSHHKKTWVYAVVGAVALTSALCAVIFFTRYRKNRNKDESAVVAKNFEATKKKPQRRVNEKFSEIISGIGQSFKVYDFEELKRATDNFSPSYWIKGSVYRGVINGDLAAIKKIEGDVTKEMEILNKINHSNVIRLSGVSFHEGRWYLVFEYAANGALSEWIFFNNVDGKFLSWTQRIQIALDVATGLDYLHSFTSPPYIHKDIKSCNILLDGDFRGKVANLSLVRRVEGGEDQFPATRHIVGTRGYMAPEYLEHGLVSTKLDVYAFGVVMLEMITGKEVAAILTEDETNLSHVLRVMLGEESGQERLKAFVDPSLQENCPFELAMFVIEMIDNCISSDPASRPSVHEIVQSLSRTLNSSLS
Chain of GmLYR3-11 (I1LHL9 entry or part of it): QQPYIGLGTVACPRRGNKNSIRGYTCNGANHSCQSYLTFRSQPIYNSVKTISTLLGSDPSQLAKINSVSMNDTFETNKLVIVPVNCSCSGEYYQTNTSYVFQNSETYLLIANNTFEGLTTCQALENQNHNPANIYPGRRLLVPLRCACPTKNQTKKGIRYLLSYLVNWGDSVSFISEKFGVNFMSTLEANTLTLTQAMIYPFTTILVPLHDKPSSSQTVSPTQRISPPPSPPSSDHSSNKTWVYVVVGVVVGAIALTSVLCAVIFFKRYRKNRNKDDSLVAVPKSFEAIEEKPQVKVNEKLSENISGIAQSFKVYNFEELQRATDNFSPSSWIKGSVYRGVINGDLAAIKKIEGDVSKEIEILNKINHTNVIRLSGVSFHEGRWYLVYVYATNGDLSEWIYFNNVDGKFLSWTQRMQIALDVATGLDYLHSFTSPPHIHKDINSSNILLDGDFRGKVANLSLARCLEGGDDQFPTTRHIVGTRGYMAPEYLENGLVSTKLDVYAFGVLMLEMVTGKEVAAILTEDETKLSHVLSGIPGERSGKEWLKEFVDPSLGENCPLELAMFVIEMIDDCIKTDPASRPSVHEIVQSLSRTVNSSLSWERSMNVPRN
Chain of LjLYS12 (D3KTZ9 entry or part of it): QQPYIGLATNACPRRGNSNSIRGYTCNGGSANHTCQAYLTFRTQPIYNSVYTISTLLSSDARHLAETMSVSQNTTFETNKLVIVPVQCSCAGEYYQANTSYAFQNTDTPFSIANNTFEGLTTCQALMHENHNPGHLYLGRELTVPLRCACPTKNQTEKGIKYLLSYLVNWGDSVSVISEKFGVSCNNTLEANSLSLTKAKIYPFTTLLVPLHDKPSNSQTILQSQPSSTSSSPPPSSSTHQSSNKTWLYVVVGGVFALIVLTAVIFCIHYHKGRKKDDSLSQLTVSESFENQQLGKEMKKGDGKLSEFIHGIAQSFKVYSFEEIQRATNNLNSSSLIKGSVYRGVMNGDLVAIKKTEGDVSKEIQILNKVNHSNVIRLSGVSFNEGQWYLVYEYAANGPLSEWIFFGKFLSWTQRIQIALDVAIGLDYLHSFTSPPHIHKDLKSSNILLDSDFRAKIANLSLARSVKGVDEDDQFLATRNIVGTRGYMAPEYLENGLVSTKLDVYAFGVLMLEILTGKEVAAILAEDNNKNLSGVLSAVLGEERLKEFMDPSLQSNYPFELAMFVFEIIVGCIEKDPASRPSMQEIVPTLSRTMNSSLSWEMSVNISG
Chain of PsLYR3 (A0A9D5BD18 entry or part of it): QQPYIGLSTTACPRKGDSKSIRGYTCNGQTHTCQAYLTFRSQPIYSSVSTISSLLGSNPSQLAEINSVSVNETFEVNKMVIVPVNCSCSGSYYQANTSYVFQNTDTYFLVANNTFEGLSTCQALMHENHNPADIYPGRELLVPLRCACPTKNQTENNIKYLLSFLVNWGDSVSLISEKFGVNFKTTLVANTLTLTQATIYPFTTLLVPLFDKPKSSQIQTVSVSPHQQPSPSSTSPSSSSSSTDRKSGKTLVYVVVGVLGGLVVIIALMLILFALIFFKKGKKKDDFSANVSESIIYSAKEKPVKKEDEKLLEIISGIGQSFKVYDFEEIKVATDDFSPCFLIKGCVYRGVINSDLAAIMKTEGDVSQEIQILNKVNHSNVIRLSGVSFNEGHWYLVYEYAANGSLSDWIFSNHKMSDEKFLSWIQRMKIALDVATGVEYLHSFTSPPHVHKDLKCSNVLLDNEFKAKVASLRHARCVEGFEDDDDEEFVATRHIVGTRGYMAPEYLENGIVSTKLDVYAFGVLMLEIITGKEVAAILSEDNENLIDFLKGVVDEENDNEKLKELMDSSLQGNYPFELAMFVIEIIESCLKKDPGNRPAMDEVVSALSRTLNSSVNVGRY
Chain of GmLYR3-1 (A5YJW2 entry or part of it): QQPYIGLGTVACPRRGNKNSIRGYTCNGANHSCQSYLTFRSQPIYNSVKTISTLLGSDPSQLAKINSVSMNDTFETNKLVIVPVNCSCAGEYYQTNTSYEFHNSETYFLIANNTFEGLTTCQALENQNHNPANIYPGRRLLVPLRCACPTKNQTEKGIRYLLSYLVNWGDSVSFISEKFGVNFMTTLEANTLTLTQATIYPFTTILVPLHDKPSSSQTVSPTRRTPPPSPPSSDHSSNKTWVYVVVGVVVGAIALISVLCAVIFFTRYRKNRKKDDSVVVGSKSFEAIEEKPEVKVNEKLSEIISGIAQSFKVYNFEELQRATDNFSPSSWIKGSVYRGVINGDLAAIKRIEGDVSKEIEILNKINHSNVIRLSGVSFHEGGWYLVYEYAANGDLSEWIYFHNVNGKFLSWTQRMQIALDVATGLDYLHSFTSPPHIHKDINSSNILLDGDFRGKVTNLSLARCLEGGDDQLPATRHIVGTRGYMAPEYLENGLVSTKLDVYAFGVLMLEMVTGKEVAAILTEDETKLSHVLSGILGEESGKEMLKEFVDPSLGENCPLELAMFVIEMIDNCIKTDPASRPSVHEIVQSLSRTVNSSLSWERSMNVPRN
Chain of LYR3 (G7KAT5 entry or part of it): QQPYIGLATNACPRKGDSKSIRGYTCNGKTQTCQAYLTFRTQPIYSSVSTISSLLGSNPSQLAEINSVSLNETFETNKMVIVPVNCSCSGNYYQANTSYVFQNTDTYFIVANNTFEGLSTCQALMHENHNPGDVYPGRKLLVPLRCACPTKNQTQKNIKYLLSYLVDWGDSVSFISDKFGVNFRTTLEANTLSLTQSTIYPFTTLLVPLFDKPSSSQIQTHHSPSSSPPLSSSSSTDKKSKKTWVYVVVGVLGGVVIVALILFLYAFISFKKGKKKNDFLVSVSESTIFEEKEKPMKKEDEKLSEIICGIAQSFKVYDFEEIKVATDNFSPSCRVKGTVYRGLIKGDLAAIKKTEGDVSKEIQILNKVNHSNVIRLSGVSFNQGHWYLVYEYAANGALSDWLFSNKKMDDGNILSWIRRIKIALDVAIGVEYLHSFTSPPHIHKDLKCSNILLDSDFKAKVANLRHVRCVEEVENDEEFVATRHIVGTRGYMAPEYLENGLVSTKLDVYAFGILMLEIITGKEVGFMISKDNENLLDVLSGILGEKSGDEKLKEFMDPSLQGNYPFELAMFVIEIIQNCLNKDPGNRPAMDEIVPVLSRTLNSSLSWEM

Broadly, the Ki is a measure of affinity in units of concentration, obtained from inhibition or displacement. Turning to `CC(=O)N[C@H]1[C@H](O[C@H]2[C@H](O)[C@@H](NC(C)=O)[C@H](O[C@H]3[C@H](O)[C@@H](NC(C)=O)C(O)O[C@@H]3CO)O[C@@H]2CO)O[C@H](CO)[C@@H](O[C@@H]2O[C@H](CO)[C@@H](O[C@@H]3O[C@H](CO)[C@@H](O[C@@H]4O[C@H](CO)[C@@H](O)[C@H](O)[C@H]4NC(C)=O)[C@H](O)[C@H]3NC(C)=O)[C@H](O)[C@H]2NC(C)=O)[C@@H]1O` (stereo partly drawn) [CO-VI], at LYR3, the Ki came out at 1200 nM.

In the case of `CC(=O)N[C@H]1[C@H](O[C@H]2[C@H](O)[C@@H](NC(C)=O)[C@H](O[C@H]3[C@H](O)[C@@H](NC(C)=O)C(O)O[C@@H]3CO)O[C@@H]2CO)O[C@H](CO)[C@@H](O[C@@H]2O[C@H](CO)[C@@H](O[C@@H]3O[C@H](CO)[C@@H](O)[C@H](O)[C@H]3NC(C)=O)[C@H](O)[C@H]2NC(C)=O)[C@@H]1O` (stereo partly drawn) [CO-V], the inhibition constant (Ki) at PsLYR3 is greater than 10000 nM; at LjLYS12, greater than 10000 nM; at GmLYR3-11 it was greater than 10000 nM; at GmLYR3-1 it was greater than 10000 nM; on PvLYR3, greater than 10000 nM; on LYR3 it was 12000 nM.

`CCCCCC/C=C\CCCCCCCC(=O)N[C@H]1[C@H](O[C@H]2[C@H](O)[C@@H](NC(C)=O)C(O)O[C@@H]2CO)O[C@H](CO)[C@@H](O)[C@@H]1O` (stereo partly drawn) [LCO-II(C16:1Δ9)]: at LYR3, the Ki was greater than 5000 nM and the “affinity / competition for binding to LYR3 (in words)” value (from here on “affinity / competition for binding”) was “very low”.

In the case of `CCCCCC/C=C\CCCCCCCC(=O)N[C@H]1[C@H](O[C@H]2[C@H](O)[C@@H](NC(C)=O)[C@H](O[C@H]3[C@H](O)[C@@H](NC(C)=O)C(O)O[C@@H]3CO)O[C@@H]2CO)O[C@H](CO)[C@@H](O)[C@@H]1O` (stereo partly drawn) [LCO-III(C16:1Δ9)], on LYR3, the inhibition constant (Ki) was 79 nM.

Turning to `CCCCCCCCCCCCCCCC(=O)N[C@H]1[C@H](O[C@H]2[C@H](O)[C@@H](NC(C)=O)[C@H](O[C@H]3[C@H](O)[C@@H](NC(C)=O)[C@H](O[C@H]4[C@H](O)[C@@H](NC(C)=O)C(O)O[C@@H]4CO)O[C@@H]3CO)O[C@@H]2CO)O[C@H](CO)[C@@H](O)[C@@H]1O` (stereo partly drawn) [LCO-IV(C16:0)], the Ki on PsLYR3 was 50 nM; at LjLYS12 it was 42 nM; on GmLYR3-11, 140 nM; at GmLYR3-1, 70 nM; at PvLYR3, 23 nM; on LYR3 it was 15 nM.

`CCCCCC/C=C\CCCCC/C=C/C(=O)N[C@H]1[C@H](O[C@H]2[C@H](O)[C@@H](NC(C)=O)[C@H](O[C@H]3[C@H](O)[C@@H](NC(C)=O)[C@H](O[C@H]4[C@H](O)[C@@H](NC(C)=O)C(O)O[C@@H]4CO)O[C@@H]3CO)O[C@@H]2CO)O[C@H](CO)[C@@H](O)[C@@H]1O` (stereo partly drawn) [LCO-IV(C16:2Δ2, 9)]: the Ki at LYR3 was 30 nM.

Regarding `CCCCCCCC/C=C\CCCCCCCC(=O)N[C@H]1[C@H](O[C@H]2[C@H](O)[C@@H](NC(C)=O)[C@H](O[C@H]3[C@H](O)[C@@H](NC(C)=O)[C@H](O[C@H]4[C@H](O)[C@@H](NC(C)=O)C(O)O[C@@H]4CO)O[C@@H]3CO)O[C@@H]2CO)O[C@H](CO)[C@@H](O)[C@@H]1O` (stereo partly drawn) [LCO-IV(C18:1Δ9)], the “binding of the radiolabeled photoactivatable ligand to the 100 kDa polypeptide in presence of excess competitor” value in test [1] is “inhibited”. Besides, the Ki on LYR3 stood at 22 nM.

As for `CCCCCCCCCCCCCCCC(=O)N[C@H]1[C@H](O[C@H]2[C@H](O)[C@@H](NC(C)=O)[C@H](O[C@H]3[C@H](O)[C@@H](NC(C)=O)[C@H](O[C@H]4[C@H](O)[C@@H](NC(C)=O)C(O)O[C@@H]4COS(=O)(=O)O)O[C@@H]3CO)O[C@@H]2CO)O[C@H](CO)[C@@H](O)[C@@H]1O` (stereo partly drawn) [LCO-IV(S, C16:0)], the Ki at PsLYR3 was 24 nM; on LjLYS12, 11 nM; on GmLYR3-11 it was 32 nM; at GmLYR3-1, 18 nM; at PvLYR3, 17 nM; at LYR3, 26 nM.

In the case of `CCCCCC/C=C\CCCCCCCC(=O)N[C@H]1[C@H](O[C@H]2[C@H](O)[C@@H](NC(C)=O)[C@H](O[C@H]3[C@H](O)[C@@H](NC(C)=O)[C@H](O[C@H]4[C@H](O)[C@@H](NC(C)=O)C(O)O[C@@H]4COS(=O)(=O)O)O[C@@H]3CO)O[C@@H]2CO)O[C@H](CO)[C@@H](O)[C@@H]1O` (stereo partly drawn) [LCO-IV(S, C16:1Δ9)], the Ki at LYR3 is 21 nM.

As a reminder, the Kd is the constant that tells how readily two partners part at equilibrium. `CCCCCC/C=C\CCCCC/C=C/C(=O)N[C@H]1[C@H](O[C@H]2[C@H](O)[C@@H](NC(C)=O)[C@H](O[C@H]3[C@H](O)[C@@H](NC(C)=O)[C@H](O[C@H]4[C@H](O)[C@@H](NC(C)=O)C(O)O[C@@H]4COS(=O)(=O)O)O[C@@H]3CO)O[C@@H]2CO)O[C@H](CO)[C@@H](O)[C@@H]1O` (stereo partly drawn) [LCO-IV(S, C16:2Δ2, 9)]: the equilibrium dissociation constant (Kd) on PsLYR3 (read-out: Affinity (Kd)) worked out at 31 nM; at LjLYS12 (read-out: Affinity (Kd)), 33 nM; on GmLYR3-11 (read-out: Affinity (Kd)) it was 64 nM; on GmLYR3-1 (read-out: Affinity (Kd)), 32 nM; at PvLYR3 (read-out: Affinity (Kd)), 40 nM. Moreover, the “binding of the radiolabeled photoactivatable ligand to the 100 kDa polypeptide in presence of excess competitor” value in test [1] is given as “completely abolished”.

With `CCCCCCCC/C=C\CCCCC/C=C/C(=O)N[C@H]1[C@H](O[C@H]2[C@H](O)[C@@H](NC(C)=O)[C@H](O[C@H]3[C@H](O)[C@@H](NC(C)=O)[C@H](O[C@H]4[C@H](O)[C@@H](NC(C)=O)C(O)O[C@@H]4COS(=O)(=O)O)O[C@@H]3CO)O[C@@H]2CO)O[C@H](CO)[C@@H](O)[C@@H]1O` (stereo partly drawn) [LCO-IV(S, C18:2Δ2, 9)], the Ki at LYR3 was determined as 7 nM.

Turning to `CCCCCC/C=C\CCCCCCCC(=O)N[C@H]1[C@H](O[C@H]2[C@H](O)[C@@H](NC(C)=O)[C@H](O[C@H]3[C@H](O)[C@@H](NC(C)=O)[C@H](O[C@H]4[C@H](O)[C@@H](NC(C)=O)[C@H](O[C@H]5[C@H](O)[C@@H](NC(C)=O)C(O)O[C@@H]5CO)O[C@@H]4CO)O[C@@H]3CO)O[C@@H]2CO)O[C@H](CO)[C@@H](O)[C@@H]1O` (stereo partly drawn) [LCO-V(C16:1Δ9)], at LYR3, the Ki was 4.3 nM and the “affinity / competition for binding” value is given as “slightly higher”.

In the case of peptidoglycan, the “affinity / competition for binding” value at LYR3 is given as “no competition”.
